According to US9744220B2, “Compositions and methods for treating inflammatory diseases” (priority 2013, dated 2017):

B1: truncated PDNF equivalent to amino acids 1-425 of SEQ ID NO:2: truncated PDNF, amino acids 1-425 of SEQ ID NO:2 (protein, listed as Trypanosoma cruzi)
chain: MGKTVVVASRMFWLMFFVPLLLAICPSEPAYALAPGSSRVELFKRKNSTVPFEDKAGKVTERVVHSFRLPALVNVDGVMVAIADARYDTSNDNSLIDTVAKYSVDDGETWETQIAIKNSRVSSVSRVVDPTVIVKGNKLYVLVGSYYSSRSYWSSHGDARDWDILLAVGEVTKSTAGGKITASIKWGSPVSLKKFFPAEMEGMHTNQFLGGAGVAIVASNGNLVYPVQVTNKKKQVFSKIFYSEDDGKTWKFGKGRSDFGCSEPVALEWEGKLIINTRVDWKRRLVYESSDMEKPWVEAVGTVSRVWGPSPKSNQPGSQSSFTAVTIEGMRVMLFTHPLNFKGRWLRDRLNLWLTDNQRIYNVGQVSIGDENSAYSSVLYKDDKLYCLHEINTDEVYSLVFARLVGELRIIKSVLRSWKNWDSHL
B2: truncated PDNF corresponding to amino acids 1-445 of SEQ ID NO:2: bacterially-expressed truncated PDNF, amino acids 1-445 of SEQ ID NO:2 (protein, listed as Trypanosoma cruzi)
chain: MGKTVVVASRMFWLMFFVPLLLAICPSEPAYALAPGSSRVELFKRKNSTVPFEDKAGKVTERVVHSFRLPALVNVDGVMVAIADARYDTSNDNSLIDTVAKYSVDDGETWETQIAIKNSRVSSVSRVVDPTVIVKGNKLYVLVGSYYSSRSYWSSHGDARDWDILLAVGEVTKSTAGGKITASIKWGSPVSLKKFFPAEMEGMHTNQFLGGAGVAIVASNGNLVYPVQVTNKKKQVFSKIFYSEDDGKTWKFGKGRSDFGCSEPVALEWEGKLIINTRVDWKRRLVYESSDMEKPWVEAVGTVSRVWGPSPKSNQPGSQSSFTAVTIEGMRVMLFTHPLNFKGRWLRDRLNLWLTDNQRIYNVGQVSIGDENSAYSSVLYKDDKLYCLHEINTDEVYSLVFARLVGELRIIKSVLRSWKNWDSHLSSICTPADPAASSSESGCGP

How the values were obtained:
[1] = system: Trk; test: Pharmacological Trk inhibition of sPDNF-stimulated H9c2 cardiomyocytes; assay type: cell-based, rat; settings: K252a 200 nM 1 hr pre-incubation, sPDNF 1 μg/ml 3 hr
Protocol: Pharmacological inhibition: H9c2 cardiomyocytes were stimulated with sPDNF (1 μg/ml, 3 hr) without pretreatment (sPDNF) or after pretreatment with K252a (200 nM, 1 hr) (K252a+sPDNF), and transcripts of MCP-1 (FIG. 9A) and FKN (FIG. 9B) quantified by qPCR. Chemokine gene expression was normalized to HPRT and fold change calculated relative to vehicle-treated cells. Bars represent mean±SD fold change expression of duplicate samples, *P<0.05 and **P<0.01; experiment performed three times, each giving similar results.
First, H9c2 cardiomyocytes were pre-incubated (1 hr) with the Trk antagonist K252a, which blocks Trk signaling by inhibiting Trk autophosphorylation (53), followed by stimulation (3 hr) with sPDNF (1 μg/ml) or vehicle PBS, and quantification of MCP-1 and FKN transcripts by qPCR.
H9c2 cells were pre-treated with 0.1% DMSO vehicle control or 200 nM K252a for 1 h prior to addition of sPDNF (1 μg/ml). Supernatants and cell monolayers were collected for quantification of secreted chemokines and cells were harvested for mRNA quantification by qPCR.

[2] = system: TrkA-positive PC12 cells; settings: bacterially-expressed truncated PDNF; cited from earlier work

| Molecule | effect on sPDNF stimulation of FKN transcripts [1] | effect on sPDNF stimulation of MCP-1 transcripts [1] | survival and differentiation of TrkA-positive PC12 cells [2] |
| --- | --- | --- | --- |
| COC(=O)[C@@]1(O)C[C@H]2O[C@]1(C)n1c3ccccc3c3c4c(c5c6ccccc6n2c5c31)C(=O)NC4 [K252a] | completely abrogated | completely abrogated | – |
| B1 | – | – | did not |
| B2 | – | – | promoted survival and differentiation |
